Measured values taken from US10406146B2, “Heterocyclic compound” (TAKEDA PHARMACEUTICAL COMPANY LIMITED, priority 2015, dated 2019).

Experiments:
Assay type in all cases: biochemical
HDAC6 enzyme = target: T1, HDAC6 enzyme (Homo sapiens, UniProt Q9UBN7); assay: HDAC6 enzyme inhibitory assay (HDAC-Glo I/II Assay kit); conditions: wells without enzyme = 100% inhibition; for inhibition at 1 µM: read-out: HDAC6 inhibitory rate (%) (1 μM)
T1 construct: transducing full length HDAC1 and HDAC6 genes into Sf-9 insect cells; GST; purchased SignalChem; host or cells: Sf-9 insect cells
T1 sequence (Q9UBN7 1-1215): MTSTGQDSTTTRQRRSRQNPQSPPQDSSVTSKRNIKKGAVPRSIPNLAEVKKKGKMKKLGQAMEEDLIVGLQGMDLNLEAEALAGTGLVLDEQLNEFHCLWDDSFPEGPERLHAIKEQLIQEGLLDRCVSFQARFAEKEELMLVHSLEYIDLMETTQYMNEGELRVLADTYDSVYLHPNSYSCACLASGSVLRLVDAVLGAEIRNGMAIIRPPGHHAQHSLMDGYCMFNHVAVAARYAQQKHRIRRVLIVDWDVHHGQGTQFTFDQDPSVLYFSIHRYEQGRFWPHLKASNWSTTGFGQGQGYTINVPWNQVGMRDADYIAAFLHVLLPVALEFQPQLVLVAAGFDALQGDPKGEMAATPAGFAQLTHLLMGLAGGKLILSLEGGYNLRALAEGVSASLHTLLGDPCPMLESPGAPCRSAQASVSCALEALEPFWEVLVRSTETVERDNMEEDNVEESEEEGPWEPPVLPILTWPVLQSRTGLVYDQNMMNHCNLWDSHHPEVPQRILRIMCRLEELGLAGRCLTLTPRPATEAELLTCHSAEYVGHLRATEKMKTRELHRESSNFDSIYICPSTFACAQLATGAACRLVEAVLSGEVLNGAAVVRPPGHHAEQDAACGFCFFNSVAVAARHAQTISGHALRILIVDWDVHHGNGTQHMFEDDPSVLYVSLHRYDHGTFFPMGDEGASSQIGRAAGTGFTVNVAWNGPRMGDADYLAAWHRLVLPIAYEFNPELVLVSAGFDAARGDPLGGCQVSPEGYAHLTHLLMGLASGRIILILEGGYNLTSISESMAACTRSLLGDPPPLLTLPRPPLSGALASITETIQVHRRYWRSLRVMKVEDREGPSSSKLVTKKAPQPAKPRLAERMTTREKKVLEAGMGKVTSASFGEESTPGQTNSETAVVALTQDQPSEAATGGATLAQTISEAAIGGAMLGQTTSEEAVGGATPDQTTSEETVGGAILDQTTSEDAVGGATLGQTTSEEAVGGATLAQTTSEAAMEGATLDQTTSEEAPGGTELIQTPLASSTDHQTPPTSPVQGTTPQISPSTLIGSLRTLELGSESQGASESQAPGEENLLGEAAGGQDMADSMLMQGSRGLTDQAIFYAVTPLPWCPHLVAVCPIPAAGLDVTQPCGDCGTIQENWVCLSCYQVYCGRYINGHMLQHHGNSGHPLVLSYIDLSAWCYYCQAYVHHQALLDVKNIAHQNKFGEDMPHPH
Description: (§1) HDAC1/6 Enzyme Inhibitory Assay
(§2) HDAC1 enzyme and HDAC6 enzyme each prepared by transducing full length HDAC1 and HDAC6 genes into Sf-9 insect cells and purifying by GST affinity column were purchased from SignalChem. Using these enzymes, HDAC1 and/or HDAC6 enzyme inhibitory activities of the compound of the present invention were evaluated. Enzymes were used after preserved at −70° C. HDAC1 or HDAC6 enzyme inhibitory activity of the compound of the present invention was measured using HDAC-Glo™ I/II Assay kit (Promega) according to the following experimental method. The test compound diluted with assay buffer (24 mM Tris-HCl (pH 7.5), 1 mM MgCl2, 0.35 mM KCl, 135 mM NaCl, 0.6 mM Glutathione, 0.01% Tween-20) was added to a 384-well plate by each 2 μL. Then, HDAC1 or HDAC6 enzyme solution diluted with assay buffer was added thereto by each 4 μL, and the plate was incubated at room temperature for 60 min. After incubated, HDAC substrate-Developer solution prepared according to Promega protocol attached to the assay kit was added to the 384-well plate by each 2 μL, and the enzyme reaction was started. After reacting at room temperature for 20 min, luminescence level was measured using plate reader Envision (PerkinElmer). The inhibitory activity of each compound was calculated as a relative activity value when luminescence level in wells without enzyme is considered as 100% inhibition.

HDAC9 enzyme = target: T2, HDAC9 enzyme (Homo sapiens, UniProt Q9UKV0); assay: HDAC9 enzyme inhibitory assay (HDAC-Glo class IIa); conditions: wells without enzyme = 100% inhibition; for inhibition at 1 µM: read-out: HDAC9 inhibitory rate (%) (1 μM)
T2 construct: transducing full length HDAC9 gene into Sf-9 insect cells; made in house; host or cells: Sf-9 insect cells
Description: HDAC9 Enzyme Inhibitory Assay
Enzyme was prepared by transducing full length HDAC9 gene into Sf-9 insect cells and purifying by Ni-NTA affinity column, and HDAC9 enzyme inhibitory activity was evaluated. Enzymes were used after preserved at −70° C. HDAC9 enzyme inhibitory activity of the test compound was measured using HDAC-Glo class IIa (Promega) according to the following experimental method. The test compound diluted with assay buffer (24 mM Tris-HCl (pH 7.5), 1 mM MgCl2, 0.35 mM KCl, 135 mM NaCl, 0.6 mM Glutathione, 0.01% Tween-20) was added to a 384-well plate by each 2 μL. Then, HDAC9 enzyme solution diluted with assay buffer was added thereto by each 2 μL, and the plate was incubated at room temperature for 60 min. After incubated, HDAC substrate-Developer solution prepared according to Promega protocol was added to the 384-well plate by each 4 μL, and the enzyme reaction was started. After reacting at room temperature for 20 min, luminescence level was measured using plate reader Envision (PerkinElmer). The inhibitory activity of each compound was calculated as a relative activity value when luminescence level in wells without enzyme is considered as 100% inhibition.

HDAC1 enzyme = target: T3, HDAC1 enzyme (Homo sapiens, UniProt Q13547); assay: HDAC1 enzyme inhibitory assay (HDAC-Glo I/II Assay kit); conditions: wells without enzyme = 100% inhibition; for inhibition at 1 µM: read-out: HDAC1 inhibitory rate (%) (1 μM)
T3 construct: transducing full length HDAC1 and HDAC6 genes into Sf-9 insect cells; GST; purchased SignalChem; host or cells: Sf-9 insect cells
Description: as §1, §2

T2 sequence (Q9UKV0 whole entry, species assumed): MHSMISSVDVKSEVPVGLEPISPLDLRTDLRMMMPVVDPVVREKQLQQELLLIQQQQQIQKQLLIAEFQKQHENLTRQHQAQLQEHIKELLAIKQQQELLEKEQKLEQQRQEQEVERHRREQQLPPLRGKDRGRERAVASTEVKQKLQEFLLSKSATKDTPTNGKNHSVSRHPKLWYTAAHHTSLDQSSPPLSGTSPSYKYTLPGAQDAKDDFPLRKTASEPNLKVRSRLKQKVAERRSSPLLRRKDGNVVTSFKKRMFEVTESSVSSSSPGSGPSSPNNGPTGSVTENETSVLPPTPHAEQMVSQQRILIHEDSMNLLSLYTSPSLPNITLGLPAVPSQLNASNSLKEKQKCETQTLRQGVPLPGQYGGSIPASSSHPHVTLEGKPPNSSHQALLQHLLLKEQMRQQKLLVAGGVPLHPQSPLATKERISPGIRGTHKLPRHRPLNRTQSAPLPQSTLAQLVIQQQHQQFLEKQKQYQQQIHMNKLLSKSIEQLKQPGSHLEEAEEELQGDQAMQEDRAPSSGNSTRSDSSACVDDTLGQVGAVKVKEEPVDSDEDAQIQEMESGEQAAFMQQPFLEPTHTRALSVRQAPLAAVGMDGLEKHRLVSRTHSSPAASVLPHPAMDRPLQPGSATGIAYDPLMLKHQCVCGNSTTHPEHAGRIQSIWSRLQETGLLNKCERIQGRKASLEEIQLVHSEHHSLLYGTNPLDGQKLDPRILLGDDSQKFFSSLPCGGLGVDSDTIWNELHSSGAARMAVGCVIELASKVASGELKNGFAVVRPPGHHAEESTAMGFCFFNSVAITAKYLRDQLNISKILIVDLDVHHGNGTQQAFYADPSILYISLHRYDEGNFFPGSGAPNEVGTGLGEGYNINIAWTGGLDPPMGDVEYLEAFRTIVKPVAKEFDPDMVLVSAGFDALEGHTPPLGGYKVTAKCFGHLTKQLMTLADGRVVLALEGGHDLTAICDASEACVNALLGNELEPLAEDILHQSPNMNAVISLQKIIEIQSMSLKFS
T3 sequence (Q13547 whole entry): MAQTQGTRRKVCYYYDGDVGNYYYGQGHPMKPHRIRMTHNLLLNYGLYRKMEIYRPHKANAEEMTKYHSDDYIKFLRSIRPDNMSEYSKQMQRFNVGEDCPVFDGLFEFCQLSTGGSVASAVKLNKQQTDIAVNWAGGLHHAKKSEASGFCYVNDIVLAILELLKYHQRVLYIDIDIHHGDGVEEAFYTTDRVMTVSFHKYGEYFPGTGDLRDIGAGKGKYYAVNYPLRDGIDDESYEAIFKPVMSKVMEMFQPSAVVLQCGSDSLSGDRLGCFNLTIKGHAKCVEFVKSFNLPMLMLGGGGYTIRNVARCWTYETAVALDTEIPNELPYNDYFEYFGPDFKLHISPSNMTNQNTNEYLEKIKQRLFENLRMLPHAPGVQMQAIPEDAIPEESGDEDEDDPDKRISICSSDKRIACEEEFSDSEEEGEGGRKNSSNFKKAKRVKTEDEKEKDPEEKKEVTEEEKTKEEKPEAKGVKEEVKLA

Structure (SMILES) | inhibition at 1 µM (HDAC6 enzyme) [%] | inhibition at 1 µM (HDAC9 enzyme) [%] | inhibition at 1 µM (HDAC1 enzyme) [%] | HDAC6 inhibitory rate (%) (1 μM) (HDAC6 enzyme) | HDAC9 inhibitory rate (%) (1 μM) (HDAC9 enzyme) | HDAC1 inhibitory rate (%) (1 μM) (HDAC1 enzyme)
O=C(NCC1CCCCN1C(=O)Nc1ccc(-c2noc(C(F)(F)F)n2)cc1)c1ccccc1-c1ccccc1 (stereo not drawn) [Example 13, 2-(((biphenyl-2-ylcarbonyl)amino)methyl)-N-(4-(5-(trifluoromethyl)-1,2,4-oxadiazol-3-yl)phenyl)piperidine-1-carboxamide] | 9 | 82 | 19 |  |  | 
O=C(NCC1CCCCN1C(=O)Nc1ccc(-c2noc(C(F)(F)F)n2)cc1)c1ccccc1F (stereo not drawn) [Example 4, 2-(((2-fluorobenzoyl)amino)methyl)-N-(4-(5-(trifluoromethyl)-1,2,4-oxadiazol-3-yl)phenyl)piperidine-1-carboxamide] | 5 | 89 | 44 |  |  | 
Cc1ccc(C(=O)NCC2CCCCN2C(=O)Nc2ccc(-c3noc(C(F)(F)F)n3)cc2)cc1 (stereo not drawn) [Example 12, 2-(((4-methylbenzoyl)amino)methyl)-N-(4-(5-(trifluoromethyl)-1,2,4-oxadiazol-3-yl)phenyl)piperidine-1-carboxamide] | 5 | 67 | -16 |  |  | 
COc1ccccc1C(=O)NCC1CCCCN1C(=O)Nc1ccc(-c2noc(C(F)(F)F)n2)cc1 (stereo not drawn) [Example 23] |  |  |  | 4 | 86 | 41
O=C(NCC1CCCCN1C(=O)Nc1ccc(-c2noc(C(F)(F)F)n2)cc1)c1ccc(Cl)c(Cl)c1 (stereo not drawn) [Example 32, 2-(((3,4-dichlorobenzoyl)amino)methyl)-N-(4-(5-(trifluoromethyl)-1,2,4-oxadiazol-3-yl)phenyl)piperidine-1-carboxamide] | 0 | 62 | -10 |  |  | 
O=C(NCC1CCCCN1C(=O)Nc1ccc(-c2noc(C(F)(F)F)n2)cc1)c1cc(Cl)cc(Cl)c1 (stereo not drawn) [Example 33, 2-(((3,5-dichlorobenzoyl)amino)methyl)-N-(4-(5-(trifluoromethyl)-1,2,4-oxadiazol-3-yl)phenyl)piperidine-1-carboxamide] | 0 | 48 | -5 |  |  | 
N#Cc1ccc(C(=O)NCC2CCCCN2C(=O)Nc2ccc(-c3noc(C(F)(F)F)n3)cc2)cc1 (stereo not drawn) [Example 21, 2-(((4-cyanobenzoyl)amino)methyl)-N-(4-(5-(trifluoromethyl)-1,2,4-oxadiazol-3-yl)phenyl)piperidine-1-carboxamide] | 0 | 94 | 28 |  |  | 
CC(=O)N1CCC(C(=O)NCC2CCCCN2C(=O)Nc2ccc(-c3noc(C(F)(F)F)n3)cc2)CC1 (stereo not drawn) [Example 53, 2-((((1-acettylpiperidin-4-yl)carbonyl)amino)methyl)-N-(4-(5-(trifluoromethyl)-1,2,4-oxadiazol-3-yl)phenyl)piperidine-1-carboxamide] |  |  |  | 7 | 94 | 32
COc1cccc(C(=O)NCC2CCCCN2C(=O)Nc2ccc(-c3noc(C(F)(F)F)n3)cc2)c1 (stereo not drawn) [Example 24, 2-(((3-methoxybenzoyl)amino)methyl)-N-(4-(5-(trifluoromethyl)-1,2,4-oxadiazol-3-yl)phenyl)piperidine-1-carboxamide] | 3 | 88 | 24 |  |  | 
O=C(NCC1CCCCN1C(=O)Nc1ccc(-c2noc(C(F)(F)F)n2)cc1)c1ccc(C(F)(F)F)cc1 (stereo not drawn) [Example 18, 2-(((4-(trifluoromethyl)benzoyl)amino)methyl)-N-(4-(5-(trifluoromethyl)-1,2,4-oxadiazol-3-yl)phenyl)piperidine-1-carboxamide] | 2 | 39 | -7 |  |  | 

Continued, in another order:

inhibition at 1 µM (HDAC6 enzyme) [%] | inhibition at 1 µM (HDAC9 enzyme) [%] | inhibition at 1 µM (HDAC1 enzyme) [%] | Structure (SMILES) | HDAC6 inhibitory rate (%) (1 μM) (HDAC6 enzyme) | HDAC9 inhibitory rate (%) (1 μM) (HDAC9 enzyme) | HDAC1 inhibitory rate (%) (1 μM) (HDAC1 enzyme)
2 | 85 | 31 | Cc1cccc(C(=O)NCC2CCCCN2C(=O)Nc2ccc(-c3noc(C(F)(F)F)n3)cc2)n1 (stereo not drawn) [Example 55, 6-methyl-N-((1-((4-(5-(trifluoromethyl)-1,2,4-oxadiazol-3-yl)phenyl)carbamoyl)piperidin-2-yl)methyl)pyridine-2-carboxamide] |  |  | 
4 | 83 | 25 | Cc1ccnc(C(=O)NCC2CCCCN2C(=O)Nc2ccc(-c3noc(C(F)(F)F)n3)cc2)c1 (stereo not drawn) [Example 56, 4-methyl-N-((1-((4-(5-(trifluoromethyl)-1,2,4-oxadiazol-3-yl)phenyl)carbamoyl)piperidin-2-yl)methyl)pyridine-2-carboxamide] |  |  | 
7 | 95 | 37 | O=C(NCC1CCCCN1C(=O)Nc1ccc(-c2noc(C(F)(F)F)n2)cc1)c1cccs1 (stereo not drawn) [Example 38, 2-(((2-thienylcarbonyl)amino)methyl)-N-(4-(5-(trifluoromethyl)-1,2,4-oxadiazol-3-yl)phenyl)piperidine-1-carboxamide] |  |  | 
5 | 97 | 63 | O=C(NCC1CCCCN1C(=O)Nc1ccc(-c2noc(C(F)(F)F)n2)cc1)c1ccncc1 (stereo not drawn) [Example 36, N-((1-((4-(5-(trifluoromethyl)-1,2,4-oxadiazol-3-yl)phenyl)carbamoyl)piperidin-2-yl)methyl)isonicotinamide] |  |  | 
1 | 63 | 10 | Cn1nc(C(=O)NCC2CCCCN2C(=O)Nc2ccc(-c3noc(C(F)(F)F)n3)cc2)cc1C(F)(F)F (stereo not drawn) [Example 59, 2-((((1-methyl-5-(trifluoromethyl)-1H-pyrazol-3-yl)carbonyl)amino)methyl)-N-(4-(5-(trifluoromethyl)-1,2,4-oxadiazol-3-yl)phenyl)piperidine-1-carboxamide] |  |  | 
3 | 76 | 11 | Cn1cnc(C(=O)NCC2CCCCN2C(=O)Nc2ccc(-c3noc(C(F)(F)F)n3)cc2)c1 (stereo not drawn) [Example 40, 2-((((1-methyl-1H-imidazol-4-yl)carbonyl)amino)methyl)-N-(4-(5-(trifluoromethyl)-1,2,4-oxadiazol-3-yl)phenyl)piperidine-1-carboxamide] |  |  | 
